How the values were obtained:
CHO-K1 cells [1] = assay: Cell viability post-transfection of transfected cell populations under selection conditions; type: cell-based, Chinese hamster; details: pJF1555; for concentration at which recovery kinetics were affected: proline-free medium, Table 8
Description: (§1) To efficiently test the impact of different procedures on improving selection stringency, experimental testing in stable cell populations was performed. As test molecules, enhanced green fluorescent protein (GFP) as well as a human IgG1 were chosen. CHO-K1 cells adapted to growth in suspension in defined medium were obtained from SAFC and cultivated in EX-CELL CD CHO Fusion medium (SAFC 14365C). Custom-made EX-CELL CD CHO Fusion medium without L-Proline (Pro) and without L-Ornithine (Orn) ("proline-free medium") was obtained from SAFC. The expression vector system was based on modified versions of "CET 1019 AS-puro-SceI" and "CET 1019 AD-puro-SceI" for GFP and human IgG1, respectively, from Merck-Millipore, containing the Puromycin selection marker (Puromycin N-acetyl-transferase) known to exert a high selection stringency. To minimize variations in cell populations derived from using different transfections or different vectors, the first series of experiments were conducted using vectors into which a P5CS expression cassette was cloned upstream of a UCOE element, in addition to the Puromycin selection marker present downstream of a gene of interest. This way, it was possible to pool different transfections using the same vector to obtain a common starting point, and split the mixture according to different selection conditions, minimizing any variations that are not due to selection conditions themselves. Expression of long and short isoform of murine P5CS (Protein: Delta-1-pyrroline-5-carboxylate synthase; Gene: Aldh18a1; UniProtKB accession number: Q9Z110-1 & Q9Z110-2) was driven by a SV40 promoter. A SV40 polyadenylation sequence was used at the 3' end of the gene. More details can be found in Table 1. Typically, CHO cells were cultivated in EX-CELL CD CHO Fusion medium containing 6 mM GlutaMAX (Thermo Fisher, 35050-38) ("CD-Fusion medium") at 37 °C with 5% CO2. Cells were grown to logarithmic phase under shaking conditions for transfections. 1e7 cells/cuvette were transfected using nucleofection (Amaxa Nucleofector II, following the manufacturer's recommendations) with 5 µg of linearized DNA. After transfection, cells were taken up in 1 ml medium and transferred into 1 well of a 6 well microtiter plate (MTP) already containing 1 ml medium. The cells were incubated for 24 h without shaking, after which 9 ml medium were added and cells were washed (either in standard or proline-free medium). Multiple transfections were pooled, if applicable. Cells were adjusted to 2e5 viable cells/ml and 10 ml were transferred to T-25 flasks. Reference cell populations were selected using 10 µg/ml Puromycin in CD-Fusion medium. For P5CS-based selection, EX-CELL CD CHO Fusion medium (custom-made, SAFC) containing 6 mM GlutaMAX without proline and without ornithine was used ("proline-free" or "CD-Fusion w/o Pro" medium), with or without additional selection pressure.
(§2) Cell viability of the different populations was monitored over time. As soon as cell populations appeared to recover from selection pressure, cells were transferred to Shake Flask or TubeSpins for expansion in suspension under shaking conditions. Subsequently, stable cell populations transfected with IgG were seeded at 2e5 viable cells/ml for batch fermentation without selection pressure (i.e. standard CD-Fusion medium containing proline and no other selective agents). The cells were cultivated for 5-10 days, viable cell densities and productivity were monitored over time. IgG titers were determined using Poros A-HPLC method. Typically, final batch titers were recorded at a time point at which majority of cultures had around 70% viability. Stable cell populations transfected with GFP vector were subjected to analysis by flow cytometry using Guava easyCyte 8HT Benchtop Flow Cytometer (Millipore). 250 µl of cell culture were transferred to 96 MTP and washed with PBS. Dead cells were excluded from analysis using propidium iodide (PI). […]

CHO-K1 cells [2] = assay: Flow cytometric analysis of GFP expression (MFI, high fluorescing cells) in stably selected cell populations; type: cell-based, Chinese hamster; details: day 15 post-transfection, pJF1555
Description: as §1, §2

[3] = CD-Fusion w/o Pro + 0.25 mM cis-4-Hydroxy-L-Proline
[4] = CD-Fusion w/o Pro + 0.5 mM cis-4-Hydroxy-L-Proline
[5] = CD-Fusion w/o Pro + 2.5 mM cis-4-Hydroxy-L-Proline
[6] = CD-Fusion w/o Pro + 5 mM cis-4-Hydroxy-L-Proline
[7] = CD-Fusion w/o Pro + 10 mM cis-4-Hydroxy-L-Proline
[8] = CD-Fusion w/o Pro + 0.1 mM Thiazolidine-2-carboxylic acid
[9] = CD-Fusion w/o Pro + 0.5 mM Thiazolidine-2-carboxylic acid
[10] = CD-Fusion w/o Pro + 1 mM Thiazolidine-2-carboxylic acid
[11] = CD-Fusion w/o Pro + 2.5 mM Thiazolidine-2-carboxylic acid
[12] = CD-Fusion w/o Pro + 10 mM Thiazolidine-2-carboxylic acid

O=C(O)[C@@H]1C[C@H](O)CN1 [cis-4-Hydroxy-L-Proline]
Viability on day 12 post-transfection (CHO-K1 cells [1]; [3]): 89% | Viability on day 12 post-transfection (CHO-K1 cells [1]; [4]): 88% | Viability on day 12 post-transfection (CHO-K1 cells [1]; CD-Fusion w/o Pro + 1 mM cis-4-Hydroxy-L-Proline): 65% | Viability on day 12 post-transfection (CHO-K1 cells [1]; [5]): 13% | Viability on day 12 post-transfection (CHO-K1 cells [1]; [6]): 13% | Viability on day 12 post-transfection (CHO-K1 cells [1]; [7]): 20% | concentration at which recovery kinetics were affected (CHO-K1 cells [1]): ≥ 1 mM | Frequency of high fluorescing cells (CHO-K1 cells [2]; [3]): 3.3% | Frequency of high fluorescing cells (CHO-K1 cells [2]; [4]): 1.7% | Frequency of high fluorescing cells (CHO-K1 cells [2]; [5]): 1.4% | Frequency of high fluorescing cells (CHO-K1 cells [2]; [6]): 0.0% | Frequency of high fluorescing cells (CHO-K1 cells [2]; [7]): 0.0%

O=C(O)C1NCCS1 (centres unmarked) [Thiazolidine-2-carboxylic acid]
Viability on day 12 post-transfection (CHO-K1 cells [1]; [8]): 87% | Viability on day 12 post-transfection (CHO-K1 cells [1]; [9]): 78% | Viability on day 12 post-transfection (CHO-K1 cells [1]; [10]): 11% | Viability on day 12 post-transfection (CHO-K1 cells [1]; [11]): 15% | Viability on day 12 post-transfection (CHO-K1 cells [1]; [12]): 16% | concentration at which recovery kinetics were affected (CHO-K1 cells [1]): 0.5 to 1 mM | Frequency of high fluorescing cells (CHO-K1 cells [2]; [8]): 4.9% | Frequency of high fluorescing cells (CHO-K1 cells [2]; [9]): 2.3% | Frequency of high fluorescing cells (CHO-K1 cells [2]; [10]): 0.0% | Frequency of high fluorescing cells (CHO-K1 cells [2]; [11]): 0.0% | Frequency of high fluorescing cells (CHO-K1 cells [2]; [12]): 0.0%

— patent publication EP3521435A1, “A HIGH STRINGENCY SELECTION SYSTEM FOR PROTEIN EXPRESSION IN PROLINE-AUXOTROPHIC CELLS” (Bayer AG, priority 2018, dated 2019)
